This note sets out measurements from ChEMBL document CHEMBL4814003, “Novel dual-mode antitumor chlorin-based derivatives as potent photosensitizers and histone deacetylase inhibitors for photodynamic therapy and chemotherapy” (Eur J Med Chem, 2021).

Bounds are passed on as bounds.

Experiment [1] deals with T1, Protein deacetylase HDAC6 (Homo sapiens, UniProt Q9UBN7).
T1 sequence (Q9UBN7 whole entry): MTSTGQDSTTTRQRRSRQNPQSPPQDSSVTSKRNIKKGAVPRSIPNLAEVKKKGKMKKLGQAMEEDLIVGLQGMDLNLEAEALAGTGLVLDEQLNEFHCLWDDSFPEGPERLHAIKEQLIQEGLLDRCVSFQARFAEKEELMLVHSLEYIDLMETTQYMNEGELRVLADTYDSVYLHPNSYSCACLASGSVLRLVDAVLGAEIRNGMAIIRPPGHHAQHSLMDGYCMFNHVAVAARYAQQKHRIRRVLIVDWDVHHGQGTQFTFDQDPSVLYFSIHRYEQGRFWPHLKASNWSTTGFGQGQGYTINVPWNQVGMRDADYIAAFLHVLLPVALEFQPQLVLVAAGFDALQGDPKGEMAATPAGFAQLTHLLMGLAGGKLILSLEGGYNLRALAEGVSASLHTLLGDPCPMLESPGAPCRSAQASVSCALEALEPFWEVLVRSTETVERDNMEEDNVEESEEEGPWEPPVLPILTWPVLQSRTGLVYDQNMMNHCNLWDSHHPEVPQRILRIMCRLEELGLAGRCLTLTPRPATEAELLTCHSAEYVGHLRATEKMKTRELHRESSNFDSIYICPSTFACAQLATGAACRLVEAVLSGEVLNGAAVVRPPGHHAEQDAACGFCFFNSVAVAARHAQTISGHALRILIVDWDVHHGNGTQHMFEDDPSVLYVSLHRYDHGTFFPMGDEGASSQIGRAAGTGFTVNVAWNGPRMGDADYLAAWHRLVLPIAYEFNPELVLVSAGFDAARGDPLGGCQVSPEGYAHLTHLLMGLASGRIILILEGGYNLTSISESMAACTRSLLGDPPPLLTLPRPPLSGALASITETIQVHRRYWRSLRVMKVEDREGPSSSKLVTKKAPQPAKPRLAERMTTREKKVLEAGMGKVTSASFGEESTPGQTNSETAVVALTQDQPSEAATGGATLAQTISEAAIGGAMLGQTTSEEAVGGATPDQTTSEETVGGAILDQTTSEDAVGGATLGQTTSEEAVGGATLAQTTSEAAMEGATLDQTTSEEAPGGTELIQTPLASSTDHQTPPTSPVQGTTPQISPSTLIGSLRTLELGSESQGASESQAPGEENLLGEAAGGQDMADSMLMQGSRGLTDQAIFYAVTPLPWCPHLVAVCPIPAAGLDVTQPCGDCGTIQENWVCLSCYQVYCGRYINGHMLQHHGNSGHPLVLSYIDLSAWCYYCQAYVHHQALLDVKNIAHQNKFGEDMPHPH
Nature of the experiment: Inhibition of human recombinant HDAC6 using Ac-Leu-Gly-Lys(Ac)-AMC as substrate by measuring fluorescence intensity incubated for 30 mins by microplate reader assay.

In another experiment the test system is A549. The experiment can be described thus: Induction of apoptosis in human A549 cells assessed as apoptotic cells at 0.01 uM in presence of light irradiation incubated for 48 hrs by annexin V-FITC staining based flow cytometry. Format: functional.

As for `C=Cc1c(C)c2cc3nc(c(C(=O)OC)c4[nH]c(cc5nc(cc1[nH]2)C(C)=C5CC)c(C)c4C(=O)OC)[C@@H](CCC(=O)Nc1ccc(C(=O)Nc2ccccc2N)cc1)[C@@H]3C`, the IC50 in experiment [1] is > 100 µM. In addition, the Activity with A549 was found to be 27.32%.

One may read the IC50 as the concentration needed to halve the response being measured.
